{"source": "patent US10010400B2", "about": "“Devices and methods for local delivery of drug to upper urinary tract” (TARIS Biomedical LLC, priority 2015, dated 2018)", "experiment": "in vitro osmotic pumping of methylene blue up a capillary tube from a closed drug reservoir", "format": "physicochemical", "conditions": "reservoir with urea and lactose tablets in 125 mL degassed, deionized water; 36 cm capillary tube extended vertically", "source_text": "Another experimental system was designed to simulate a ureteral drug delivery device having a flexible elongate body with a bladder end portion and a kidney end portion, a drug reservoir located at the bladder end portion which contains a drug and has a semi-permeable wall, and a drug lumen (capillary tube) having a first opening into the drug reservoir and a second end opening at the kidney end portion of the flexible elongate body. The ureteral drug delivery device used in the experiments was configured to permit water to enter the drug reservoir through the semi-permeable wall to create an osmotic pressure to pump the drug from the drug reservoir through the capillary tube and out of the device through the second end opening.\nIn this experiment, a drug reservoir similar to that illustrated in FIG. 11A was prepared. In particular, a spacer end piece was adhered using silicone adhesive within a tubular silicone housing. 10.5 cm of urea tablets, 4 cm of lactose tablets, and one tablet containing methylene blue were loaded into the tubular housing. A capillary tube (36 cm) having two spacers disposed in a spaced relationship at one end was slid into the tubular housing of the drug reservoir, adjacent the methylene blue tablet. […]", "data": [{"smiles": "CN(C)c1ccc2nc3ccc(=[N+](C)C)cc-3sc2c1", "note": "[methylene blue]", "values": [{"measurement": "movement of the dye up the capillary tube", "result": "observed"}]}]}
